Converted amounts (≈) assume the structure as drawn. “Also recorded” adds a separate entry of the source. Like-named read-outs stand apart in the source and are kept apart here. Values belong to the compound of their own block, whether it stands above or below them. Residues, ends and D or L forms follow the SMILES beside them.
Experiments:
[1] = molecular target: Meso-diaminopimelate dehydrogenase (m-Ddh) from P. gingivalis (Porphyromonas gingivalis, UniProt Q7MW40); assay: m-Ddh kinetic assay, inhibitor screening and IC50 determination; format: biochemical; conditions: for IC50: 400 μM m-DAP, 180 μM NADP+, pH 10.5, 25°C, three independent experiments; for IC50 with addition of Triton-X 100 versus without: .01% Triton-X 100, test for aggregation-based inhibition; for inhibition at 3000 µM: read-out: % inhibition of enzymatic activity at 3 mM
Chain of Meso-diaminopimelate dehydrogenase (m-Ddh) from P. gingivalis (Q7MW40 entry or part of it): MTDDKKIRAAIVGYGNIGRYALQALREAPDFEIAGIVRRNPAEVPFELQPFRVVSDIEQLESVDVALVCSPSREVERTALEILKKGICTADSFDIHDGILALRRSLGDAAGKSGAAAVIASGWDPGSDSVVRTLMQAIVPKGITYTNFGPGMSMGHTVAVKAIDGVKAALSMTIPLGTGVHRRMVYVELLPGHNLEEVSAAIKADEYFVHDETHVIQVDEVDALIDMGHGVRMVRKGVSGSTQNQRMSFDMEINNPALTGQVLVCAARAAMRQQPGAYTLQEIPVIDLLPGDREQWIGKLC
Protocol: (§1) The enzymatic activity for m-Ddh was determined by observing the standard oxidative deamination reaction of the substrate meso-diaminopimelate. The reaction contained 400 μM of meso-diaminopimelate (Sigma-Aldrich, St. Louis, MO), 180 μM NADP^+ (Sigma-Aldrich, St. Louis, MO), 200 mM glycine-KCl-KOH buffer (pH 10.5), and the enzyme in a final volume of 1 ml. The reaction was initiated with the addition of NADP^+. The reaction velocity was calculated from the increase in absorbance at 340 nm, spectrophotometrically monitored at 25°C, where one unit of enzyme was defined as the amount of enzyme catalyzing the formation of […] of NADPH per min.
A range of concentrations (0–3 mM) of each small-molecule compound inhibitor were added to the standard reaction and the percent of m-Ddh enzymatic inhibition was measured by the kinetic assay described above. Percent inhibition was determined by the formula: (rateofreactionnoinhibitor)−(rateofreactioninhibitor)/rateofreactionnoinhibitor×100. The concentration of each compound inhibitor which caused 50% enzymatic inhibition (IC50) was calculated using PRISM v6.04 software (Graphpad, San Diego, CA) from three independent experiments.

P. gingivalis [2] = assay: MIC, broth microdilution; format: cell-based, Porphyromonas gingivalis
Protocol: Minimal Inhibitory Concentration (MIC) assays were performed using a broth microdilution method. P. gingivalis cells were grown overnight and the following day diluted 1/10 into fresh medium. Cells were allowed to grow to mid-log phase (OD600 ≈ 0.5). Compounds were serially diluted in 96-well microtiter plates (Jet Biofil, Genesee Scientific, San Diego, CA) and an aliquot of the cell suspension was added to each well with the compound inhibitor sample for a final cell count of 1×10^5 CFU/ml. Plates were incubated for five days at 37°C in anaerobic conditions.

P. gingivalis [3] = assay: MBC, plating of MIC wells without visible growth; format: cell-based, Porphyromonas gingivalis; conditions: for MBC: Porphyromonas gingivalis, 168 h, plated 7 days, anaerobic, n = 3
Protocol: Samples were plated on tryptic soy agar plates supplemented with 5% sheep blood (Becton, Dickinson, Franklin Lakes, NJ) and incubated at 37°C in anaerobic conditions for 7 days.

S. sanguinis = assay: MIC, broth microdilution; format: cell-based, Streptococcus sanguinis; conditions: for MIC: Streptococcus sanguinis, S. sanguinis, lacks the target m-Ddh, n = 3; for S. sanguinis MIC relative to MIC of P. gingivalis: selectivity
P. gingivalis [4] = assay: Time-kill assay; format: cell-based, Porphyromonas gingivalis; conditions: for reduction of viable P. gingivalis cell count: 5× MIC
Protocol: P. gingivalis cells were grown overnight and the following day diluted 1/10 into fresh medium. Cells were allowed to grow to mid-log phase (OD600 ≈ 0.5) then diluted to a final cell suspension of 1×10^5 CFU/ml. Compounds were added at a concentration of 5x the MIC determined from the 96-well broth microdilution assay. Samples were taken at different time intervals (0, 0.25, 0.5, 1, 2, 3, 4, 6 and 24 hours) and plated on tryptic soy agar plates supplemented with 5% sheep blood (Becton, Dickinson, Franklin Lakes, NJ) using an automated Eddy Jet spiral plater (Neutec Group, Farmingdale, NY). Plates were incubated at 37°C in anaerobic conditions for 7 days.

P. gingivalis cells = assay: SEM analysis of compound exposed cells; format: cell-based, Porphyromonas gingivalis; conditions: treated P. gingivalis cells; Compounds 4 and 5 at 5x MIC
Protocol: Untreated or treated P. gingivalis cells were deposited onto a 0.1 μm disposable Millipore filter to remove medium, and samples were fixed using 2% glutaraldehyde in 0.1 M sodium cacodylate buffer (pH 7.4) for 30 min, followed by 1% osmium tetroxide in 0.1 M sodium cacodylate buffer (pH 7.4). Samples embedded in the filters were then dehydrated in ethanol followed by hexamethyldisilazane (HMDS) and allowed to air-dry. The filters were sectioned and mounted onto stubs and coated with gold for three minutes (EMS– 550 Automated Sputter Coater, Electron Microscopy Sciences, Hatfield, PA). Micrographs were taken at 30,000× total magnification using a Zeiss EVO 50 XVP scanning electron microscope (Carl Zeiss, Peabody, MA).

m-Ddh [5] = assay: Determination of kinetic parameters of m-Ddh; format: biochemical, Porphyromonas gingivalis; conditions: pH 10.5, 25°C, other substrate held at 0.5 mM; for Km: read-out: apparent Km
Protocol: as §1
Initial velocity measurements for m-DAP and NADP^+ were determined at 25°C in a similar reaction for the standard oxidative deamination reaction assay. The reaction contained 200 mM glycine-KCl-KOH buffer (pH 10.5) with m-DAP as the variable substrate with concentrations between 0.001 mM and 1 mM and NADP^+ held constant at a saturating concentration of 0.5 mM or NADP^+ as the variable substrate with concentrations between 0.01 mM to 1 mM and m-DAP held constant at 0.5 mM. Km and Vmax values were determined through non-linear fitting. All assays were performed in triplicates and non-linear fitting Michaelis-Menten data were calculated from Graphpad Prism version 5.04 (Graphpad, San Diego, CA).

m-Ddh [6] = system: m-Ddh; set-up: method as in PMID 21616177; conditions: C. thermocellum m-Ddh; cited from earlier work
[7] = compound at 3 mM, initial screen
[8] = Porphyromonas gingivalis, 120 h, five days, 37°C, anaerobic, n = 3

- IC50 [1]: 157 ± 26 µM
- IC50 with addition of Triton-X 100 versus without [1]: no difference in activity
- inhibition at 3000 µM [1, 7]: ≥ 90%
- MIC (P. gingivalis [2]; [8]): 250 µM (≈ 113 µg/mL)
- MBC to MIC ratio (P. gingivalis [3]): less than 4
- MIC (S. sanguinis): 1740 µM (≈ 784 µg/mL)
- S. sanguinis MIC relative to MIC of P. gingivalis (S. sanguinis): 7 ×
SMILES: COc1ccc(S(=O)(=O)Nc2nc3ccccc3nc2Nc2cccc(C(=O)O)c2)cc1 [Compound 4]
- MBC (P. gingivalis [3]): 374 µM (≈ 168 µg/mL)
- P. gingivalis cell count (P. gingivalis [4]; 5x MIC, after six hours of treatment): maintained a low cell count
- reduction of viable P. gingivalis cell count (P. gingivalis [4]; within 6 h of exposure): 2 log10 CFU /ml
- cellular structure by SEM (P. gingivalis cells): alteration of the cellular structure

- IC50 [1]: 310 ± 23 µM
- IC50 with addition of Triton-X 100 versus without [1]: no difference in activity
- inhibition at 3000 µM [1, 7]: ≥ 90%
- MIC (P. gingivalis [2]; [8]): 167 µM (≈ 72.9 µg/mL)
- MIC (P. gingivalis [2]; five days, 37°C, anaerobic, n = 3): 167 µM (≈ 72.7 µg/mL)
- MBC to MIC ratio (P. gingivalis [3]): less than 4
- MIC (S. sanguinis): 305 µM (≈ 133 µg/mL)
- S. sanguinis MIC relative to MIC of P. gingivalis (S. sanguinis): almost double
SMILES: Cc1cc(S(=O)(=O)Nc2cc(SCCC(=O)O)c(O)c3ccccc23)ccc1F [Compound 5]
- MBC (P. gingivalis [3]): 254 µM (≈ 111 µg/mL)
- P. gingivalis cell viability (P. gingivalis [4]; 5x MIC, after two hours of exposure): no viable cell count; also recorded: complete elimination
- reduction of viable P. gingivalis cell count (P. gingivalis [4]; after 2 h of exposure): 5 log10 CFU/ml
- cellular structure by SEM (P. gingivalis cells): alteration of the cellular structure

- IC50 [1]: 356 ± 16 µM
- IC50 with addition of Triton-X 100 versus without [1]: no difference in activity
- inhibition at 3000 µM [1, 7]: ≥ 90%
- MIC (P. gingivalis [2]; [8]): 2820 µM (≈ 1130 µg/mL)
- MIC (P. gingivalis [2]; Porphyromonas gingivalis, bound stated): > 2000 µM
- MIC (S. sanguinis): 3310 µM (≈ 1330 µg/mL)
SMILES: O=C(O)CCC(=O)Nc1ccc(S(=O)(=O)Nc2cnc3ccccc3n2)cc1 [Compound 6]

- IC50 [1]: 1160 ± 175 µM
- inhibition at 3000 µM [1, 7]: ≥ 90%
SMILES: CCC[C@@H]1CN(c2nc(C)ccc2C(=O)O)C[C@H]1C(=O)O [Compound 7]

- % inhibition of enzymatic activity at 3 mM [1, 7]: No inhibition at 3 mM
SMILES: NCc1[nH]cc(CCC(=O)O)c1CC(=O)O [Compound 8]

- % inhibition of enzymatic activity at 3 mM [1, 7]: No inhibition at 3 mM
SMILES: O=C(O)c1sccc1S(=O)(=O)Nc1cccc2[nH]ncc12 [Compound 9]

SMILES: N[C@@H](CC(=O)O)C(=O)N[C@@H](Cc1ccccc1)C(=O)O [Compound 10] (H-Asp-Phe-OH)
- inhibition at 3000 µM [1]: 2%

- inhibition at 3000 µM [1, 7]: 13%
SMILES: O=C(O)CCCC(O)(O)C(=O)O [Compound 11]

- % inhibition of enzymatic activity at 3 mM [1, 7]: No inhibition at 3 mM
SMILES: O=C(O)c1cccc(S(=O)(=O)Nc2ccnc(Sc3ccccn3)c2)c1 [Compound 12]

- inhibition at 3000 µM [1, 7]: 6%
SMILES: O=C(O)c1cccc(NS(=O)(=O)c2ccc(O)c(C(=O)O)c2)c1 [Compound 13]

- inhibition at 3000 µM [1, 7]: 17%
SMILES: Cc1n[nH]c(C)c1S(=O)(=O)Nc1cccc(NS(=O)(=O)c2ccccc2)c1 [Compound 14]

SMILES: NC(=O)c1ccc[n+]([C@@H]2O[C@H](COP(=O)([O-])OP(=O)(O)OC[C@H]3O[C@@H](n4cnc5c(N)ncnc54)[C@H](OP(=O)(O)O)[C@@H]3O)[C@@H](O)[C@H]2O)c1 [NADP^+]
- Vmax (m-Ddh [5]): 91.95 nmol/s
- Km (m-Ddh [5]): 60 µM
- Km (m-Ddh [6]): 90 µM

SMILES: CC1(C)S[C@@H]2[C@H](NC(=O)[C@H](N)c3ccccc3)C(=O)N2[C@H]1C(=O)O [ampicillin, reference compound]
- cellular structure by SEM (P. gingivalis cells): altered morphology

SMILES: N[C@H](CCC[C@H](N)C(=O)O)C(=O)O [m-DAP, meso-diaminopimelate]
- Vmax (m-Ddh [5]): 130.1 nmol/s
- Km (m-Ddh [5]): 370 µM

From publication PMC4636305, “Identification of Small-Molecule Inhibitors against Meso-2, 6-Diaminopimelate Dehydrogenase from Porphyromonas gingivalis” (PLoS ONE, 2015)
